One compound from ChEMBL document CHEMBL1156456, “Insights into the mechanism of partial agonism: crystal structures of the peroxisome proliferator-activated receptor gamma ligand-binding domain in the complex with two enantiomeric ligands” (J Biol Chem, 2007) can be followed below.

Where only a bound is given, the exact number is not on record here.

Assay [1] in a line: Activation of PPARgamma L465A mutant-mediated transcriptional activity assessed as Gal4 reporter activity.
Assay [2] in a line: Activation of PPARgamma I472A mutant-mediated transcriptional activity assessed as Gal4 reporter activity.
The nature of assay [3]: Activation of PPARgamma Q286G mutant-mediated transcriptional activity assessed as Gal4 reporter activity.
Assay [4] can be described thus: Activation of PPARgamma L469A mutant-mediated transcriptional activity assessed as Gal4 reporter activity.

By EC50 is commonly meant the concentration needed to bring the measured effect to its halfway point. On to `CN(CCOc1ccc(CC2SC(=O)NC2=O)cc1)c1ccccn1` (centres undefined) [ROSIGLITAZONE], for which the 50% effective concentration (EC50) is > 10 µM in assay [1], > 10 µM in assay [2], 0.207 µM in assay [3] and > 10 µM in assay [4].
